Data from patent US20260226068A1, “IMIDAZOTRIAZINE IL-17A MODULATORS AND USES THEREOF” (DICE ALPHA, INC., priority 2023, published 2026).
pIC50: −log10 of the molar value.

Key:
IL-17A/A = molecular target: T1, IL-17A/A (Homo sapiens, UniProt Q16552); experiment: IL-17A/A HEK-Blue cell assay (SEAP reporter); assay type: cell-based; details: HEK-Blue IL-17A reporter cells, IL17A/A 5 ng/mL, 20 hours, SEAP read at A630; read-out: HEK-Blue IL17AA (IC50 for IL-17A/A inhibition)
T1 construct: purchased Genscript Z03228
T1 sequence (Q16552 24-155): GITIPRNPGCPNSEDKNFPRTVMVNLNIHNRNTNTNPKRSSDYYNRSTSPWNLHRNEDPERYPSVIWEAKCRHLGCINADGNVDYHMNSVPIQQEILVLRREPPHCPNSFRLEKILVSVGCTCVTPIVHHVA
Method: (§1) The HEK-Blue IL-17A reporter cell line (Fisher #NC 1408637) was used for cell-based IL-17A/A inhibition assays. Cells were grown and prepared for assays according to the manufacturer's instructions. This cell line consists of HEK 293 cells that were designed to expressed IL-17RA, IL-17RC, and the Act1 adapter molecule, the combination of which, when stimulated by IL-17A/A or IL17A/F activates a […] promoter and drives expression of the recombinant Secreted Alkaline Phosphatase (SEAP) gene. Media from the cells is then added to a development reagent (Quanti-Blue Substrate, Fisher #NC971 1613), and read at A630.
(§2) Compounds were dispensed in DMSO to an empty clear 384-well tissue culture plate in a titration ranging from 10 μM to 27 pM, with DMSO added to every well to a final concentration of […]. Cells were then added to the plate (45 μL/well at a concentration of 280,000 cells/mL). IL17A/A (Genscript #Z03228) or IL17A/F (R&D Systems) was added to the plate to a final concentration of 5 ng/mL and a final well volume of 50 μL. The cells, compound, and IL-17A/A or IL17A/F were then incubated for 20 hours before media was removed for SEAP analysis. The resulting inhibition curve was then analyzed using Dotmatics' integrated 4-parameter fit screening protocol to generate IC50 values.
(§3) Table 2 includes IC50 values for IL-17A/A and IL-17A/F inhibition of selected compounds; with compounds having a IC50 of A<100 nM; B 100-1000 nM; and C>1000 nM.

IL-17A/F = molecular target: T2, IL-17A/F (Homo sapiens, UniProt Q16552+Q96PD4); experiment: IL-17A/F HEK-Blue cell assay (SEAP reporter); assay type: cell-based; details: HEK-Blue IL-17A reporter cells, IL17A/F 5 ng/mL, 20 hours, SEAP read at A630; read-out: HEK-Blue IL17AF (IC50 for IL-17A/F inhibition)
T2 construct: purchased R&D Systems
T2 sequence (Q16552 24-155): T1 sequence (Q16552 24-155)
T2 sequence (Q96PD4 31-163): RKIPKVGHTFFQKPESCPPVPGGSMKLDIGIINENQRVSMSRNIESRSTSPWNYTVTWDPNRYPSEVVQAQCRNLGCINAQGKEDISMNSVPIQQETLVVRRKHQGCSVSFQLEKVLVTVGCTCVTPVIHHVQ
Method: as §1, §2, §3

SMILES	pIC50 (IL-17A/A)	pIC50 (IL-17A/F)
CCn1nccc1C(=O)N[C@H](c1cn2nc(CC3C[C@@H](C(F)(F)F)CNC3=O)c(N3CCOCC3)nc2n1)C1CCC(F)(F)CC1 (mixture of isomers) [Compound 19, N-((1S)-(4,4-difluorocyclohexyl)(3-morpholino-2-(((5R)-2-oxo-5-(trifluoromethyl)piperidin-3-yl)methyl)imidazo[1,2-b][1,2,4]triazin-6-yl)methyl)-1-ethyl-1H-pyrazole-5-carboxamide]	6.00 to 7.00	< 6.00
CCn1nccc1C(=O)N[C@H](c1cn2nc(CC3C[C@@H](C(F)(F)F)CNC3=O)cnc2n1)[C@H]1CC[C@H](C)CC1 (single isomer, unassigned) [Compound 1]	> 7.00	< 6.00
CCn1nccc1C(=O)N[C@H](c1cn2nc(CC3C[C@@H](C(F)(F)F)CNC3=O)cnc2n1)[C@H]1CC[C@H](C)CC1 (single isomer, unassigned) [Compound 2]	6.00 to 7.00	< 6.00
CCn1nccc1C(=O)N[C@H](c1cn2nc(CC3C[C@@H](C(F)(F)F)CNC3=O)cnc2n1)C1CCC(F)(F)CC1 (single isomer, unassigned) [Compound 4]	> 7.00	< 6.00
CCn1nccc1C(=O)N[C@H](c1cn2nc(CC3C[C@@H](C(F)(F)F)CNC3=O)cnc2n1)C1CCC(F)(F)CC1 (single isomer, unassigned) [Compound 5]	6.00 to 7.00	< 6.00
CCn1nccc1C(=O)N[C@H](c1cn2nc(CC3C[C@@H](C(F)(F)F)CNC3=O)c(N3CCOCC3)nc2n1)C1CCC(F)(F)CC1 (single isomer, unassigned) [Compound 17]	> 7.00	6.00 to 7.00
CCn1nccc1C(=O)N[C@H](c1cn2nc(CC3C[C@@H](C(F)(F)F)CNC3=O)c(N3CCOCC3)nc2n1)C1CCC(F)(F)CC1 (single isomer, unassigned) [Compound 18]	> 7.00	< 6.00
O=C(N[C@H](c1cn2nc(CC3C[C@@H](C(F)(F)F)CNC3=O)c(N3CCOCC3)nc2n1)C1CCC(F)(F)CC1)c1nonc1C1CC1 (single isomer, unassigned) [Compound 20]	> 7.00	< 6.00
O=C(N[C@H](c1cn2nc(CC3C[C@@H](C(F)(F)F)CNC3=O)c(N3CCOCC3)nc2n1)C1CCC(F)(F)CC1)c1nonc1C1CC1 (single isomer, unassigned) [Compound 21]	> 7.00	< 6.00
CCn1nccc1C(=O)N[C@H](c1cn2nc(CC3C[C@@H](C(F)(F)F)CNC3=O)c(N3CCOCC3)nc2n1)[C@H]1CC[C@H](C)CC1 (single isomer, unassigned) [Compound 22]	> 7.00	6.00 to 7.00
CCn1nccc1C(=O)N[C@H](c1cn2nc(CC3C[C@@H](C(F)(F)F)CNC3=O)c(N3CCOCC3)nc2n1)[C@H]1CC[C@H](C)CC1 (single isomer, unassigned) [Compound 23]	> 7.00	< 6.00
CCn1nccc1C(=O)N[C@H](c1cn2nc(C[C@H]3C[C@@H](C(F)(F)F)CNC3=O)cnc2n1)[C@@H]1CCCC(F)(F)C1 (single isomer, unassigned) [Compound 31]	6.00 to 7.00	< 6.00
O=C(N[C@H](c1cn2nc(C[C@@H]3C[C@@H](C(F)(F)F)CNC3=O)cnc2n1)C1CCC(F)(F)CC1)c1nonc1C1CC1 (single isomer, unassigned) [Compound 33]	6.00 to 7.00	< 6.00
CCn1nccc1C(=O)N[C@H](c1cn2nc(CC3C[C@@H](C(F)(F)F)CNC3=O)c(N(C)C)nc2n1)C1CCC(F)(F)CC1 (single isomer, unassigned) [Compound 48]	> 7.00	6.00 to 7.00
CCn1nccc1C(=O)N[C@H](c1cn2nc(CC3C[C@@H](C(F)(F)F)CNC3=O)c(N(C)C)nc2n1)C1CCC(F)(F)CC1 (single isomer, unassigned) [Compound 49]	> 7.00	< 6.00
CCn1nccc1C(=O)N[C@H](c1cn2nc(CC3C[C@H](C(F)(F)F)CNC3=O)c(N3CCOCC3)nc2n1)C1CCC(F)(F)CC1 (single isomer, unassigned) [Compound 50]	6.00 to 7.00	< 6.00

SMILES	pIC50 (IL-17A/A)	pIC50 (IL-17A/F)
CCn1nccc1C(=O)N[C@H](c1cn2nc(CC3C[C@H](C(F)(F)F)CNC3=O)c(N(C)C)nc2n1)C1CCC(F)(F)CC1 (single isomer, unassigned) [Compound 51]	6.00 to 7.00	< 6.00
CCn1nccc1C(=O)N[C@H](c1cn2nc(CC3C[C@H](C(F)(F)F)CNC3=O)c(N3CCOCC3)nc2n1)C1CCC(F)(F)CC1 (single isomer, unassigned) [Compound 54]	> 7.00	6.00 to 7.00
CCn1nccc1C(=O)N[C@H](c1cn2nc(CC3C[C@H](C(F)(F)F)CNC3=O)c(N(C)C)nc2n1)C1CCC(F)(F)CC1 (single isomer, unassigned) [Compound 55]	> 7.00	6.00 to 7.00
CCn1nccc1C(=O)N[C@H](c1cn2nc(C[C@H]3C[C@@H](C(F)(F)F)CNC3=O)c(C3CCOC3)nc2n1)C1CCC(F)(F)CC1 (single isomer, unassigned) [Compound 61]	> 7.00	6.00 to 7.00
CCn1nccc1C(=O)N[C@H](c1cn2nc(C[C@H]3C[C@@H](C(F)(F)F)CNC3=O)c(C3CCOC3)nc2n1)C1CCC(F)(F)CC1 (single isomer, unassigned) [Compound 62]	> 7.00	6.00 to 7.00
CCn1nccc1C(=O)N[C@H](c1cn2nc(C[C@@H]3CC(F)(F)CNC3=O)cnc2n1)C1CCC(F)(F)CC1 (single isomer, unassigned) [Compound 63]	6.00 to 7.00	< 6.00
CCn1nccc1C(=O)N[C@H](c1cn2nc(CC3CC(F)(F)CNC3=O)c(N3CCOCC3)nc2n1)C1CCC(F)(F)CC1 (single isomer, unassigned) [Compound 64]	> 7.00	< 6.00
CCn1nccc1C(=O)N[C@H](c1cn2nc(CC3CC(F)(F)CNC3=O)c(N3CCOCC3)nc2n1)C1CCC(F)(F)CC1 (single isomer, unassigned) [Compound 65]	> 7.00	< 6.00
CCn1nccc1C(=O)N[C@H](c1cn2nc(C[C@H]3C[C@@H](C(F)(F)F)CNC3=O)c(C3CCCOC3)nc2n1)[C@H]1CCCC(F)(F)C1 (single isomer, unassigned) [Compound 68]	> 7.00	> 7.00
CCn1nccc1C(=O)N[C@H](c1cn2nc(C[C@H]3C[C@@H](C(F)(F)F)CNC3=O)c(C3CCCOC3)nc2n1)[C@@H]1CCCC(F)(F)C1 (single isomer, unassigned) [Compound 71]	> 7.00	6.00 to 7.00
CCn1nccc1C(=O)N[C@H](c1cn2nc(CC3C[C@H](C(F)(F)F)CNC3=O)cnc2n1)C1CCC(F)(F)CC1 (stereo partly drawn) [Compound 14, N—((S)-(4,4-difluorocyclohexyl)(2-(((5S)-2-oxo-5-(trifluoromethyl)piperidin-3-yl)methyl)imidazo[1,2-b][1,2,4]triazin-6-yl)methyl)-1-ethyl-1H-pyrazole-5-carboxamide]	6.00 to 7.00	–
CCn1nccc1C(=O)N[C@H](c1cn2nc(C[C@H]3C[C@H](C(F)(F)F)CNC3=O)cnc2n1)C1CCC(F)(F)CC1 [Compound 52]	6.00 to 7.00	–
CC(C)n1nccc1C(=O)N[C@H](c1cn2nc(C[C@@H]3C[C@@H](C(F)(F)F)CNC3=O)cnc2n1)C1CCC(F)(F)CC1 [Compound 202]	6.00 to 7.00	–
CCn1nccc1C(=O)N[C@H](c1cn2nc(C[C@H]3C[C@@H](C(F)(F)F)CNC3=O)c(C(C)(C)F)nc2n1)C1CCC(F)(F)CC1 [Compound 233, N—((S)-(4,4-difluorocyclohexyl)(3-(2-fluoropropan-2-yl)-2-(((3R,5R)-2-oxo-5-(trifluoromethyl)piperidin-3-yl)methyl)imidazo[1,2-b][1,2,4]triazin-6-yl)methyl)-1-ethyl-1H-pyrazole-5-carboxamide]	> 7.00	–
CC(F)(F)C(=O)N[C@H](c1cn2nc(C[C@H]3C[C@@H](C(F)(F)F)CNC3=O)c(C3CCOCC3)nc2n1)C1CCC(F)(F)CC1 [Compound 438, N—((S)-(4,4-difluorocyclohexyl)(2-(((3R,5R)-2-oxo-5-(trifluoromethyl)piperidin-3-yl)methyl)-3-(tetrahydro-2H-pyran-4-yl)imidazo[1,2-b][1,2,4]triazin-6-yl)methyl)-2,2-difluoropropanamide]	6.00 to 7.00	–
